Experimental data published in paper PMC10743653, “Combined In Silico and In Vitro Analyses to Assess the Anticancer Potential of Thiazolidinedione–Thiosemicarbazone Hybrid Molecules” (International Journal of Molecular Sciences, 2023).

Key:
[1] = Ferric-reducing antioxidant power (FRAP) assay
Source text: (§1) Antioxidant activity is a complex procedure, usually happening through several multiple or predominant chemical mechanisms (i.e., hydrogen atom transfer (HAT), single electron transfer (SET), and the ability to chelate transition metals), and it is influenced by many factors, which cannot be fully described with one single method. Therefore, it is important to perform more than one type of measurement to take into account the various mechanisms of antioxidant action. In this study, to assess the antioxidant activity of TZD–TSCs 2–5, two complementary tests were used: a DPPH (2,2-diphenyl-1-picrylhydrazyl) free radical-scavenging ability assay, that detects the HAT and SET mechanisms, and a FRAP (ferric reducing antioxidant power) assay, that prefers the […] mechanism. The antioxidant powers of 2–5 were compared to standard antioxidants, such as the water-soluble synthetic analogue of vitamin E (Trolox) and ascorbic acid (vitamin C).
Each compound concentration (25, 75, 150, and 200 μg/mL, respectively) was dissolved in Milli-Q water and mixed with an equal volume of 0.2 M sodium phosphate buffer (pH 6.6) and 1% potassium ferricyanide. The mixture was incubated for 30 min at 37 °C. Thereafter, 10% trichloroacetic acid (w/v) was added and the mixture was centrifuged at 1000 g for 5 min. One mL of the upper layer was mixed with an equal volume of Milli-Q water and 0.1% ferric chloride. The absorbance was read at 700 nm using an EL800 Universal Microplate Reader (BioTek Instruments, Winooski, VT, USA). Ascorbic acid (0–150 μg/mL) was used as a positive control.

[2] = test system: CCD 841 CoTr cells; experiment: Nitric oxide measurement (Griess), CCD 841 CoTr; assay type: cell-based, human; settings: 200 μg/mL
Procedure: (§2) Nitrate, i.e., a stable end product of NO, was measured in culture supernatants with a spectrophotometric method based on the Griess reaction. Culture supernatants were collected from the cell cultures treated with specific concentrations of the tested compounds (25, 75, 150, and 200 μg/mL, respectively). Briefly, 100 μL of the culture supernatant was placed in 96-well flat-bottomed plates in triplicate and incubated with 100 μL of Griess reagent (1% sulfanilamide/0.1% N-(1-naphthyl)ethylenediamine dihydrochloride) in 3% H3PO4 at room temperature for 10 min. The optical density was measured at 550 nm using a microplate reader. A standard curve was prepared using 0.5–25 μM sodium nitrite (NaNO2) for calibration.

[3] = test system: HT29 cells; experiment: Nitric oxide measurement (Griess), HT29; assay type: cell-based, human
Procedure: as §2

[4] = test system: HepG2 cells; experiment: MTT assay, HepG2; assay type: cell-based, human; settings: for IC50: Homo sapiens, HepG2, MTT, 24 h treatment, mean ± SD; for SI (selectivity index): IC50 CCD 841 CoTr divided by IC50 HepG2
Procedure: (§3) The effects of TZD–TSCs 2–5 on the cellular viability of a panel of cell lines were investigated through an 3-(4,5-dimethylthiazol-2-yl)-2,5-diphenyl-2H-tetrazolium bromide (MTT) assay, following a 24 h treatment with the compounds. The panel consisted of three solid tumor cells: T98G (glioblastoma multiforme), HepG2 (hepatocellular carcinoma, epithelial), and HT29 (colon adenocarcinoma, epithelial), as well as noncancerous cells CCD 841 CoTr (normal colon, epithelial).
(§4) Primary single dose screenings of TZD–TSCs 2–5 were performed at a concentration of 200 μg/mL, and those that elicited a greater than 80% inhibition of cell proliferation were analyzed at several concentrations, to find their half-maximal inhibitory concentration (IC50). The IC50 values, reported as the mean ± SD in Table 2, indicate the concentration of the tested compound that inhibits the growth/viability of the cancer cell population by 50%. In this specific case of an MTT assay, which measures the activity of mitochondrial dehydrogenases (as an indicator of cell viability), the IC50 values stand for the concentration that inhibits the metabolic activity of cells by 50%.
(§5) Human colon adenocarcinoma cells, HT29 (ATCC no. HTB-38), derived from a grade I tumor, were cultured in roswell park memorial institute Medium (RPMI) 1640 medium, supplemented with 10% fetal calf serum (FCS) (GibcoTM, Paisley, UK) and antibiotics (100 U/mL penicillin and 100 μg/mL streptomycin) (Sigma, St. Louis, MO), at 37 °C in a humidified atmosphere with 5% CO2. Human normal colon epithelial cells, CCD 841 CoTr (ATCC no. CRL-1807), were cultured in RPMI 1640 + dulbecco’s modified eagle medium (DMEM) (1:1) medium (Sigma, St. Louis, MO), supplemented with 10% FCS and antibiotics, at 34 °C in a 5% CO2/95% air atmosphere. Human glioblastoma T98G cells were cultured in Dulbecco’s Modified Eagle’s Medium (DMEM) (Sigma Aldrich, St. Louis, MO, USA), supplemented with 10% fetal bovine serum (FBS), penicillin (100 U/mL), and streptomycin (100 μg/mL). Human hepatocellular carcinoma cells, HepG2, were maintained in Eagle’s Minimum Essential Medium, supplemented with 10% FBS, penicillin (100 U/mL), and streptomycin (100 μg/mL).
(§6) After 24 h of incubation of the cells with the tested compounds in 100 μL of culture medium, MTT solution (5 mg/mL, 25 μL/well) was added and incubated for an additional 3 h. The purple crystals of formazan which formed in the medium were solubilized overnight in 10% sodium dodecyl sulphate (SDS) in a 0.01 M HCl mixture. The product was quantified spectrophotometrically by measuring its absorbance at 570 nm using an Emax Microplate Reader (Molecular Devices Corporation, Menlo Park, CA, USA).

[5] = test system: T98G cells; experiment: MTT assay, T98G; assay type: cell-based, human; settings: for IC50: Homo sapiens, T98G, MTT, 24 h treatment, mean ± SD; for SI (selectivity index): IC50 CCD 841 CoTr divided by IC50 T98G
Procedure: as §3, §4, §5, §6

[6] = test system: HT29 cells; experiment: MTT assay, HT29; assay type: cell-based, human; settings: for IC50: Homo sapiens, HT-29, HT29, MTT, 24 h treatment, mean ± SD; for SI (selectivity index): IC50 CCD 841 CoTr divided by IC50 HT29
Procedure: as §3, §4, §5, §6

[7] = DPPH free radical scavenging test
Source text: as §1
The free radical scavenging activity of […] was measured by the DPPH assay. Briefly, 100 μl of DPPH solution (0.2 mg/mL in ethanol) was added to 100 μL of the tested compound concentrations (25, 75, 150, and 200 μg/mL, respectively). Trolox, at increasing concentrations (1–50 μg/mL), was used as a standard. After 20 min of incubation at room temperature, the absorbances of the solutions were measured at 515 nm. The lower the absorbance, the higher the free radical scavenging activity of the compound. The activity of each compound was determined by comparing its absorbance with that of the standard.
The ability of the compounds to scavenge the DPPH radical was calculated by the following formula:DPPH scavenging effect (%) = [(Xcontrol − Xcompound/Xcontrol) × 100], where Xcontrol is the absorbance of the control and Xcompound is the absorbance in the presence of TZD-TSCs preparations.

[8] = test system: CCD 841 CoTr cells; experiment: MTT assay, normal colon epithelial cells; assay type: cell-based; settings: Homo sapiens, CCD 841 CoTr (noncancerous), 24 h treatment, mean ± SD
Procedure: as §3, §4, §5, §6

[9] = test system: PPARγ; parameters: method as in PMID 34006099; settings: cited from earlier work
[10] = test system: HDAC4; parameters: method as in PMID 34006099; settings: cited from earlier work
[11] = test system: CEM cells; parameters: method as in PMID 34006099; settings: read-out: IC50, antiproliferative effects against CEM cells; cited from earlier work

With O=C(C=C1SC(=O)NC1=O)Oc1cccc(C=NNC(=S)Nc2ccccc2Cl)c1 [TZD–TSC 4] the “FRAP reduction value corresponding to concentration of ascorbic acid” value (“FRAP reduction value corresponding” below) ([1]; compound at 25 μg/mL) was 1.62 µg/mL, the “FRAP reduction value corresponding” value ([1]; compound at 75 μg/mL) was 5.95 µg/mL and the “FRAP reduction value corresponding” value ([1]; compound at 150 μg/mL) was 4.05 µg/mL. The “FRAP reduction value corresponding” value ([1]; compound at 200 μg/mL) was 5.41 µg/mL, the “NO production, [NO2^−]” value [2] was 0.639 µM and the “NO production, [NO2^−]” value ([3]; HT29, 25 μg/mL) was 0.558 µM. For the same compound, the IC50 [4] was 20.1 ± 1.19 µM, the “SI (selectivity index)” value [4] was 4.34 and the IC50 [5] was 42.4 ± 2.23 µM. The “SI (selectivity index)” value [5] was 2.06, the IC50 [6] was 117 ± 9.37 µM and the “SI (selectivity index)” value [6] was 0.75. The “DPPH reduction value corresponding to concentration of Trolox” value (shortened to “DPPH reduction value corresponding”) ([7]; compound at 25 μg/mL) was 2.834 µg/mL, the “DPPH reduction value corresponding” value ([7]; compound at 75 μg/mL) was 6.381 µg/mL and the “DPPH reduction value corresponding” value ([7]; compound at 150 μg/mL) was 13.982 µg/mL. For the same compound, the “DPPH reduction value corresponding” value ([7]; compound at 200 μg/mL) was 17.638 µg/mL and the IC50 [8] was 87.3 ± 5.06 µM.
In the case of O=C(COc1ccc2cc(/C=C3/SC(=O)NC3=O)ccc2c1)Nc1c(F)cc(F)cc1Br [compound 1], the “Activity toward PPARγ” value [9] is given as “low micromolar concentration”, the “Activity toward HDAC4” value [10] is given as “low micromolar concentration” and the IC50 [11] is given as 9.6 µM.
In the case of O=C(C=C1SC(=O)NC1=O)Oc1ccc(C=NNC(=S)Nc2ccc(Cl)cc2Cl)cc1 [TZD–TSC 5], the “FRAP reduction value corresponding” value ([1]; compound at 25 μg/mL) is reported as 2.70 µg/mL, the “FRAP reduction value corresponding” value ([1]; compound at 75 μg/mL) is reported as 2.43 µg/mL and the “FRAP reduction value corresponding” value ([1]; compound at 150 μg/mL) is reported as 4.59 µg/mL. For the same compound, the “FRAP reduction value corresponding” value ([1]; compound at 200 μg/mL) was 9.19 µg/mL, the “NO production, [NO2^−]” value [2] was 0.272 µM and the “NO production, [NO2^−]” value ([3]; HT29, 25 μg/mL) was ~ 0.272 μM. The “NO production, [NO2^−]” value ([3]; HT29, 200 μg/mL) was ~ 0.272 μM, the IC50 [4] was 13.9 ± 0.59 µM and the “SI (selectivity index)” value [4] was 5.35. The IC50 [5] was 93.6 ± 3.45 µM, the “SI (selectivity index)” value [5] was 0.79 and the IC50 [6] was 119 ± 10.7 µM. The “SI (selectivity index)” value [6] was 0.62, the “DPPH reduction value corresponding” value ([7]; compound at 25 μg/mL) was 0.768 µg/mL and the “DPPH reduction value corresponding” value ([7]; compound at 75 μg/mL) was 2.689 µg/mL. The “DPPH reduction value corresponding” value ([7]; compound at 150 μg/mL) was 9.964 µg/mL, the “DPPH reduction value corresponding” value ([7]; compound at 200 μg/mL) was 15.177 µg/mL and the IC50 [8] was 74.2 ± 2.3 µM.
With COc1cc([C@@H]2c3cc4c(cc3[C@@H](O[C@@H]3O[C@@H]5CO[C@@H](C)O[C@H]5[C@H](O)[C@H]3O)[C@H]3COC(=O)[C@H]23)OCO4)cc(OC)c1O [Etoposide, reference compound] the IC50 [4] was 61.9 ± 2.97 µM, the IC50 [5] was greater than 160 µM and the IC50 [6] was 161 ± 8.51 µM.
